These results are taken from US20260167623A1 (NIKANG THERAPEUTICS, INC., priority 2022, published 2026).

Test [1] has as its target T1, CDK2 (Homo sapiens, UniProt P24941).
T1 construct: High-Throughput Measurement of Cellular Endogenous CDK2; endogenous in cells; host or cells: OVCAR3
The experiment in a line: High-throughput HTRF measurement of cellular endogenous CDK2 level (degradation, DC50/Dmax) in OVCAR3 cells, 6 h. The test is classed as cell-based. The note with it: 6 h compound treatment, HTRF total CDK2, read-out: DC50_OVCAR3_6h. As to the method:
High-Throughput Measurement of Cellular Endogenous CDK2
Effects of compounds on cellular CDK2 level were monitored by a high-throughput HTRF assay.
To determine half maximal degradation concentration (DC50) and maximum degradation level (Dmax) values of compounds, cellular CDK2 level was measured in 96-well format using HTRF total CDK2 cellular kit (Cat #64CDK2TPEG) from Cisbio.
On Day 1, OVCAR3 cells were seeded into 96-well tissue-culture treated plates at 20,000 cells/well in 200 μL and incubated overnight at 37° C. in CO2 atmosphere. On Day 2 cells were treated with compounds at concentration ranging from 0.03 to 1,000 nM using HP D300 digital dispenser. 6 hours after compound treatment, cell culture media was removed by flicking the plate and tapping the plate against clean paper towel. Immediately 30 μL 1× lysis buffer was supplemented from the kit and added to each well and the plate is incubated at room temperature on shaker for 30 min. After homogenization by pipetting up and down, 8 μL cell lysate from 96-well cell culture plate was transferred to 384-well small volume white detection plate. 2 μL premixed detection solution was added and the plate is covered with sealer. To prepare the detection solution, d2 conjugated-CDK2 antibody and Eu-cryptate conjugated CDK2 antibody were diluted into detection buffer following manufacturer's instruction. Detection plates were incubated overnight at room temperature and read on ClarioStar (BMG Labtech) in TR-FRET mode (665 nM and 620 nM). The TR-FRET ratio (665 nM/620 nM) was plotted against the compound concentration and normalized to DMSO controls (0% degradation) and lysis buffer controls (100% degradation). Half maximal degradation concentration (DC 50) […] were calculated with a four-parameter logistic fit using GraphPad Prism (version 8; La Jolla, CA).
In the table below, AA indicates a DC50 of greater than or equal to 0.5 nM but less than 1 nM; A indicates a DC50 of greater than or equal to 1 nM but less than or equal to 10 nM; B indicates a DC50 of greater than 10 nM but less than or equal to 100 nM; C indicates a DC50 of greater than 100 nM but less than or equal to 1 μM; and D indicates a DC50 of greater than 1 μM […] but less than or equal to 5 μM. NT means not tested.
A general note: TR-FRET usually uses a lanthanide donor and a delayed reading to cut background.

Test [2] addresses T1, CDK2. Description: Inhibition of CDK2: phospho-Rb (S807/811) HTRF measurement in OVCAR3 cells, 24 h. The test is classed as cell-based. Particulars: 24 h compound treatment, read-out: pRB_OVCAR3_24h. In a few lines:
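OVCAR3 cells, seeded overnight, were exposed to compounds at 0.3 to 10,000 nM for 24 h, then lysed. Rb S807/811 phosphorylation read by HTRF (665/620 nm ratio) after 4 h detection at room temperature; data normalized to DMSO and IC50 from four-parameter logistic fit.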

For the compound `O=C1CCC(N2Cc3cc(N4CCC(CN5CCN(c6cccc(S(=O)(=O)N7CCC(Nc8ncc(C(F)(F)F)cn8)CC7)c6)CC5)CC4)ccc3C2=O)C(=O)N1` (stereo not drawn) [Example 248, 3-(1-oxo-5-(4-((4-(3-((4-((5-(trifluoromethyl)pyrimidin-2-yl)amino)piperidin-1-yl)sulfonyl)phenyl)piperazin-1-yl)methyl)piperidin-1-yl)isoindolin-2-yl)piperidine-2,6-dione], the DC50 at CDK2 [1] was in the range of 1000 to 5000 nM. For the same compound, the IC50 at CDK2 [2] lay within 1 to 100 nM.

Turning to `Cn1c(=O)n(C2CCC(=O)NC2=O)c2ccc(F)c(C3CCN(CC4CCN(c5cc(S(=O)(=O)N6CCC(Nc7ncc(Cl)cn7)CC6)ccc5C#N)CC4)CC3)c21` (stereo not drawn) [Example 216, 4-((4-((5-chloropyrimidin-2-yl)amino)piperidin-1-yl)sulfonyl)-2-(4-((4-(1-(2,6-dioxopiperidin-3-yl)-5-fluoro-3-methyl-2-oxo-2,3-dihydro-1H-benzo[d]imidazol-4-yl)piperidin-1-yl)methyl)piperidin-1-yl)benzonitrile], on CDK2 [1], the DC50 was in the range of 10 to 100 nM. The IC50 on CDK2 [2] lay within 1 to 100 nM.

On to `CC(Cc1cccc(S(=O)(=O)N2CCC(Nc3ncc(Cl)cn3)CC2)c1)CN1CCC(c2ccc3c(N4CCC(=O)NC4=O)nn(C)c3c2)CC1` (stereo not drawn) [Example 53, 1-(6-(1-(3-(3-((4-((5-chloropyrimidin-2-yl)amino)piperidin-1-yl)sulfonyl)phenyl)-2-methylpropyl)piperidin-4-yl)-1-methyl-1H-indazol-3-yl)dihydropyrimidine-2,4(1H,3H)-dione], for which, at CDK2 [1], the DC50 lay in the range of 10 to 100 nM. For the same compound, the IC50 on CDK2 [2] fell in the range of 1 to 100 nM.

`O=C1CCC(n2c(=O)oc3c(C4CCN(CC5CCN(c6cccc(S(=O)(=O)N7CCC(Nc8ncc(Cl)cn8)CC7)c6)CC5)CC4)cccc32)C(=O)N1` (stereo not drawn) [Example 168, 3-(7-(1-((1-(3-((4-((5-chloropyrimidin-2-yl)amino)piperidin-1-yl)sulfonyl)phenyl)piperidin-4-yl)methyl)piperidin-4-yl)-2-oxobenzo[d]oxazol-3(2H)-yl)piperidine-2,6-dione]: the DC50 on CDK2 [1] lay in the range of 10 to 100 nM. Moreover, on CDK2 [2], the IC50 is 1 to 100 nM.

In the case of `O=C1CCC(c2csc3cc(C4CCN(CC5CCN(c6cccc(S(=O)(=O)N7CCC(Nc8ncc(C(F)(F)F)cn8)CC7)c6)CC5)CC4)ccc23)C(=O)N1` (stereo not drawn) [Example 250, 3-(6-(1-((1-(3-((4-((5-(trifluoromethyl)pyrimidin-2-yl)amino)piperidin-1-yl)sulfonyl)phenyl)piperidin-4-yl)methyl)piperidin-4-yl)benzo[b]thiophen-3-yl)piperidine-2,6-dione], the DC50 at CDK2 [1] was 10 to 100 nM. For the same compound, the IC50 on CDK2 [2] was in the range of 1 to 100 nM.

On to `Cn1nc(N2CCC(=O)NC2=O)c2cc(F)c(C3CCN(Cc4cccc(S(=O)(=O)N5CCC(Nc6ncc(C(F)(F)F)cn6)CC5)c4)CC3)cc21` [Example 16, 1-(5-fluoro-1-methyl-6-(1-(3-((4-((5-(trifluoromethyl)pyrimidin-2-yl)amino)-piperidin-1-yl)sulfonyl)benzyl)piperidin-4-yl)-1H-indazol-3-yl)dihydropyrimidine-2,4(1H,3H)-dione], for which the DC50 at CDK2 [1] lay within 10 to 100 nM. At CDK2 [2], the IC50 was in the range of 1 to 100 nM.

Regarding `Cn1nc(N2CCC(=O)NC2=O)c2cc(F)c(C3CCN(Cc4cccc(S(=O)(=O)N5CCC(Nc6ncc(OC(F)F)cn6)CC5)c4)CC3)cc21` [Example 77, 1-(6-(1-(3-((4-((5-(difluoromethoxy)-pyrimidin-2-yl)amino)piperidin-1-yl)sulfonyl)benzyl)piperidin-4-yl)-5-fluoro-1-methyl-1H-indazol-3-yl)dihydropyrimidine-2,4(1H,3H)-dione], on CDK2 [1], the DC50 was in the range of 1 to 10 nM. Besides, on CDK2 [2], the IC50 was in the range of 1 to 100 nM.

In the case of `O=C1CCC(N2Cc3cc(N4CCN(Cc5cccc(S(=O)(=O)N6CCC(Nc7ncc(OC(F)F)cn7)CC6)c5)CC4)c(F)cc3C2=O)C(=O)N1` (stereo not drawn) [Example 43, 3-(5-(4-(3-((4-((5-(difluoromethoxy)-pyrimidin-2-yl)amino)piperidin-1-yl)sulfonyl)benzyl)piperazin-1-yl)-6-fluoro-1-oxoisoindolin-2-yl)piperidine-2,6-dione], the DC50 on CDK2 [1] is 10 to 100 nM. The IC50 at CDK2 [2] lay in the range of 100 to 500 nM.

For the compound `Cn1nc(N2CCC(=O)NC2=O)c2ccc(C3CCN(CCCc4cccc(S(=O)(=O)N5CCC(Nc6ncc(C(F)(F)F)cn6)CC5)c4)CC3)cc21` [Example 87, 1-(1-methyl-6-(1-(3-(3-((4-((5-(trifluoro-methyl)pyrimidin-2-yl)amino)piperidin-1-yl)sulfonyl)phenyl)propyl)piperidin-4-yl)-1H-indazol-3-yl)dihydropyrimidine-2,4(1H,3H)-dione], the DC50 at CDK2 [1] lay within 1 to 10 nM. The IC50 on CDK2 [2] was in the range of 1 to 100 nM.

For the compound `CC(c1cccc(S(=O)(=O)N2CCC(Nc3ncc(Cl)cn3)CC2)c1)N1CCC(c2ccc3c(N4CCC(=O)NC4=O)nn(C)c3c2)CC1` (stereo not drawn) [Example 38], the DC50 at CDK2 [1] fell in the range of 10 to 100 nM. Further, at CDK2 [2], the IC50 fell in the range of 100 to 500 nM.

Regarding `CCc1cnc(NC2CCN(S(=O)(=O)c3cccc(CN4CCC(c5ccc6c(N7CCC(=O)NC7=O)nn(C)c6c5)CC4)c3)CC2)nc1` [Example 61, 1-(6-(1-(3-((4-((5-ethylpyrimidin-2-yl)amino)piperidin-1-yl)sulfonyl)benzyl)-piperidin-4-yl)-1-methyl-1H-indazol-3-yl)dihydropyrimidine-2,4(1H,3H)-dione], on CDK2 [1], the DC50 was 10 to 100 nM. On CDK2 [2], the IC50 is 1 to 100 nM.

As for `Cn1c(=O)n(C2CCC(=O)NC2=O)c2ccc(C3CCN(CC4CCN(c5cc(S(=O)(=O)N6CCC(Nc7ncc(C(F)(F)F)cn7)CC6)ccc5C#N)CC4)CC3)cc21` (stereo not drawn) [Example 205, 2-(4-((4-(1-(2,6-dioxopiperidin-3-yl)-3-methyl-2-oxo-2,3-dihydro-1H-benzo[d]imidazol-5-yl)piperidin-1-yl)methyl)piperidin-1-yl)-4-((4-((5-(trifluoromethyl)pyrimidin-2-yl)amino)piperidin-1-yl)sulfonyl)benzonitrile], at CDK2 [1], the DC50 lay in the range of 0.5 to 1 nM. In addition, the IC50 at CDK2 [2] fell in the range of 1 to 100 nM.

In the case of `N#Cc1ccc(S(=O)(=O)N2CCC(Nc3ncc(Cl)cn3)CC2)cc1N1CCC(CN2CCC(c3cccc4c3oc(=O)n4C3CCC(=O)NC3=O)CC2)CC1` (stereo not drawn) [Example 197, 4-((4-((5-chloropyrimidin-2-yl)amino)piperidin-1-yl)sulfonyl)-2-(4-((4-(3-(2,6-dioxopiperidin-3-yl)-2-oxo-2,3-dihydrobenzo[d]oxazol-7-yl)piperidin-1-yl)methyl)piperidin-1-yl)benzonitrile], on CDK2 [1], the DC50 was 10 to 100 nM. The IC50 on CDK2 [2] was 1 to 100 nM.

As to `Cn1c(=O)n(C2CCC(=O)NC2=O)c2cccc(C3CCN(CC4CCN(c5cc(S(=O)(=O)N6CCC(Nc7ncc(Cl)cn7)CC6)ccc5C#N)CC4)CC3)c21` (stereo not drawn) [Example 151, 4-((4-((5-chloropyrimidin-2-yl)amino)piperidin-1-yl)sulfonyl)-2-(4-((4-(1-(2,6-dioxopiperidin-3-yl)-3-methyl-2-oxo-2,3-dihydro-1H-benzo[d]imidazol-4-yl)piperidin-1-yl)methyl)piperidin-1-yl)benzonitrile], the DC50 at CDK2 [1] lay in the range of 10 to 100 nM. Also, on CDK2 [2], the IC50 lay within 1 to 100 nM.

Take `C[C@@H]1CN(CC2CCN(c3cccc(S(=O)(=O)N4CCC(Nc5ncc(Cl)cn5)CC4)c3)CC2)CCN1c1ccc2c(N3CCC(=O)NC3=O)nn(C)c2c1` [Example 116, (R)-1-(6-(4-((1-(3-((4-((5-chloropyrimidin-2-yl)amino)piperidin-1-yl)sulfonyl)phenyl)-piperidin-4-yl)methyl)-2-methylpiperazin-1-yl)-1-methyl-1H-indazol-3-yl)dihydropyrimidine-2,4(1H,3H)-dione]: at CDK2 [1], the DC50 lay within 10 to 100 nM. Moreover, at CDK2 [2], the IC50 was 1 to 100 nM.
